Values after ≈ are worked out from the molar mass of the structure shown. Active and inactive are the calls of the source. The calls are words filed in the database; no cut-off is given here.
Experiments:
Bacillus subtilis [1] = assay: Antibacterial activity against Bacillus subtilis assessed as inhibition of protein synthesis at 100 mg/L after 50 mins by [35S]-methionine incorporation assay; format: functional
Bacillus subtilis [2] = assay: Antibacterial activity against Bacillus subtilis assessed as inhibition of RNA synthesis at 100 mg/L after 50 mins by [3H]-uridine incorporation assay; format: functional
Bacillus subtilis [3] = assay: Antibacterial activity against Bacillus subtilis assessed as inhibition of peptidoglycan synthesis at 100 mg/L after 50 mins by [3H]-N-acetylglucosamine incorporation assay; format: functional
Bacillus subtilis [4] = assay: Antibacterial activity against Bacillus subtilis assessed as inhibition of DNA synthesis at 100 mg/L after 50 mins by [3H]thymidine incorporation assay; format: functional
Bacillus subtilis [5] = assay: Antibacterial activity against Bacillus subtilis assessed as inhibition of plasma membrane lipids synthesis at 100 mg/L after 50 mins by [3H]-sodium acetate incorporation assay; format: functional
Lipid bilayer [6] = assay: Binding affinity to DOPC large unilamellar vesicle assessed as carboxyfluorescein leakage at 10 to 20 ug/ml after 20 secs by fluorescence-based assay relative to control
[7] = Chemical stability of compound at 50 to 500 mg/L at pH 5 after 24 hrs at room temperature by LC-MS analysis; format: physicochemical; conditions: buffer, pH 5, 24 h
Bacillus subtilis [8] = assay: Antibacterial activity against Bacillus subtilis assessed as inhibition of plasma membrane lipids synthesis at 2 mg/L after 50 mins by [3H]-sodium acetate incorporation assay; format: functional
Staphylococcus aureus [9] = assay: Antibacterial activity against methicillin-resistant Staphylococcus aureus 4591 clinical isolates after 24 hrs by microdilution method; format: functional; conditions: Staphylococcus aureus, 4591, 24 h
BJ = assay: Cytotoxicity against human BJ cells assessed as reduction in cell viability after 48 hrs by ATPlite reagent based assay
[10] = Apparent permeability across apical to basolateral side in human Caco2 cells at 200 uM after 3 hrs by LC-MS analysis; format: ADME, cell-based; conditions: caco-2, 3 h
Bacillus subtilis [11] = assay: Antibacterial activity against Bacillus subtilis assessed as inhibition of RNA synthesis at 2 mg/L after 50 mins by [3H]-uridine incorporation assay; format: functional
Salmonella enteritidis = assay: Antibacterial activity against Salmonella enteritidis S2-25 after 24 hrs by microdilution method; format: functional, Salmonella enterica subsp. enterica serovar Enteritidis; conditions: Salmonella enterica, S2-25, 24 h
Escherichia coli [12] = assay: Antibacterial activity against Escherichia coli CCM 3954 after 24 hrs by microdilution method; format: functional; conditions: CCM 3954, 24 h
TERT-RPE1 [13] = assay: Induction of apoptosis in human RPE1 cells assessed as caspase 3/7 activation up to 80 mg/L after 4 hrs by caspase-Glo 3/7 luminescent assay; format: cell-based; conditions: tert-rpe1, 4 h
[14] = Chemical stability of compound at 50 to 500 mg/L at pH 0.18 after 24 hrs at room temperature by LC-MS analysis; format: physicochemical; conditions: buffer, pH 0.18, 24 h
TERT-RPE1 [15] = assay: Cytotoxicity against human RPE1 cells assessed as reduction in cell viability after 48 hrs by ATPlite reagent based assay; conditions: tert-rpe1, 48 h
Lipid bilayer [16] = assay: Binding affinity to DOPG large unilamellar vesicle assessed as carboxyfluorescein leakage at 10 ug/ml after 20 secs by fluorescence-based assay relative to control
Enterococcus faecium = assay: Antibacterial activity against vancomycin-resistant Enterococcus faecium 419/ana clinical isolates after 24 hrs by microdilution method; format: functional
Escherichia coli [17] = assay: Antibacterial activity against Escherichia coli 16702 after 24 hrs by microdilution method; format: functional; conditions: Escherichia coli, 16702, 24 h
Burkholderia multivorans = assay: Antibacterial activity against Burkholderia multivorans after 24 hrs by microdilution method; format: functional
HepG2 [18] = assay: Induction of apoptosis in human HepG2 cells assessed as caspase 3/7 activation up to 80 mg/L after 4 hrs by caspase-Glo 3/7 luminescent assay; format: cell-based; conditions: hepg2, 4 h
Acinetobacter baumannii = assay: Antibacterial activity against Acinetobacter baumannii A3-08 after 24 hrs by microdilution method; format: functional; conditions: A3-08, 24 h
[19] = Chemical stability of compound at 50 to 500 mg/L at pH 5 after 24 hrs at 37 degC by LC-MS analysis; format: physicochemical; conditions: buffer, pH 5, 24 h
[20] = test system: Staphylococcus epidermidis; assay: Antibacterial activity against Staphylococcus epidermidis 8700/B after 24 hrs by microdilution method; format: functional
Lipid bilayer [21] = assay: Binding affinity to DOPG large unilamellar vesicle assessed as carboxyfluorescein leakage at 10 mg/L after 20 secs by fluorescence-based assay relative to control
Bacillus subtilis [22] = assay: Antibacterial activity against Bacillus subtilis after 24 hrs by microdilution method; format: functional
Bacillus subtilis [23] = assay: Antibacterial activity against Bacillus subtilis assessed as inhibition of peptidoglycan synthesis at 2 mg/L after 50 mins by [3H]-N-acetylglucosamine incorporation assay; format: functional
Bacillus subtilis [24] = assay: Antibacterial activity against Bacillus subtilis assessed as inhibition of protein synthesis at 2 mg/L after 50 mins by [35S]-methionine incorporation assay; format: functional
HepG2 [25] = assay: Cytotoxicity against human HepG2 cells assessed as disruption of cell membrane integrity after 4 hrs by CytoTox-ONE-based assay; conditions: hepg2, 4 h
[26] = test system: Staphylococcus haemolyticus; assay: Antibacterial activity against fluoroquinolne-resistant Staphylococcus haemolyticus 16568 after 24 hrs by microdilution method; format: functional; conditions: Staphylococcus haemolyticus, 16568, 24 h
TERT-RPE1 [27] = assay: Cytotoxicity against human RPE1 cells assessed as disruption of cell membrane integrity at >80 mg/L after 4 hrs by CytoTox-ONE-based assay; conditions: tert-rpe1, 4 h
[28] = Chemical stability of compound at 50 to 500 mg/L at pH 0.18 after 24 hrs at 37 degC by LC-MS analysis; format: physicochemical; conditions: buffer, pH 0.18, 24 h
TERT-RPE1 [29] = assay: Cytotoxicity against human RPE1 cells assessed as disruption of cell membrane integrity after 4 hrs by CytoTox-ONE-based assay; conditions: tert-rpe1, 4 h
Pseudomonas aeruginosa [30] = assay: Antibacterial activity against Pseudomonas aeruginosa CCM 3955 after 24 hrs by microdilution method; format: functional; conditions: CCM 3955, 24 h
Enterococcus faecalis = assay: Antibacterial activity against Enterococcus faecalis CCM 4224 after 24 hrs by microdilution method; format: functional; conditions: CCM 4224, 24 h
Staphylococcus aureus [31] = assay: Antibacterial activity against Staphylococcus aureus CCM 4223 after 24 hrs by microdilution method; format: functional; conditions: CCM 4223, 24 h
Pseudomonas aeruginosa [32] = assay: Antibacterial activity against Pseudomonas aeruginosa 16575 after 24 hrs by microdilution method; format: functional; conditions: Pseudomonas aeruginosa, 16575, 24 h
HepG2 [33] = assay: Cytotoxicity against human HepG2 cells assessed as reduction in cell viability after 48 hrs by ATPlite reagent based assay; conditions: hepg2, 48 h
[34] = Chemical stability of compound at 50 to 500 mg/L at pH 8.8 after 24 hrs at room temperature by LC-MS analysis; format: physicochemical; conditions: buffer, pH 8.8, 24 h
Bacillus subtilis [35] = assay: Antibacterial activity against Bacillus subtilis assessed as inhibition of DNA synthesis at 2 mg/L after 50 mins by [3H]thymidine incorporation assay; format: functional
Streptococcus agalactiae = assay: Antibacterial activity against Streptococcus agalactiae after 24 hrs by microdilution method; format: functional
[36] = test system: Stenotrophomonas maltophilia; assay: Antibacterial activity against Stenotrophomonas maltophilia S2-23 after 24 hrs by microdilution method; format: functional; conditions: S2-23, 24 h
[37] = Chemical stability of compound at 50 to 500 mg/L at pH 8.8 after 24 hrs at 37 degC by LC-MS analysis; format: physicochemical; conditions: buffer, pH 8.8, 24 h

CCn1cc(C(=O)O)c(=O)c2ccc(C)nc21
inhibition (Bacillus subtilis [1]): Active | inhibition (Bacillus subtilis [2]): Active | inhibition (Bacillus subtilis [3]): Active | inhibition (Bacillus subtilis [4]): Active | inhibition (Bacillus subtilis [5]): Active

CCCCCCCCCCCCCCCOP(=O)(CCN(CCCN)CCCN)OC[C@H]1O[C@@H](n2ccc(=O)[nH]c2=O)[C@H](O)[C@@H]1O (some centres undefined)
Activity (Lipid bilayer [6]): 20 to 35% | Stability [7]: Stable | inhibition (Bacillus subtilis [8]): inactive | MIC (Staphylococcus aureus [9]): 1.56 µg/mL (≈ 2.31 µM) | Activity (BJ): 29.1 mg/L | permeability [10]: Impermeable | inhibition (Bacillus subtilis [11]): inactive | MIC (Salmonella enteritidis): 6.25 µg/mL (≈ 9.25 µM) | MIC (Escherichia coli [12]): 6.25 µg/mL (≈ 9.25 µM) | Activity (TERT-RPE1 [13]): Non-Toxic | Stability [14]: Stable | Activity (TERT-RPE1 [15]): 34.8 mg/L | fold change (FC) (Lipid bilayer [16]): 25 | MIC (Enterococcus faecium): 6.25 µg/mL (≈ 9.25 µM) | MIC (Escherichia coli [17]): 25 µg/mL (≈ 37 µM) | MIC (Burkholderia multivorans): 50 µg/mL (≈ 74 µM) | Activity (HepG2 [18]): Non-Toxic | MIC (Acinetobacter baumannii): 3.13 µg/mL (≈ 4.63 µM) | Stability [19]: Stable | MIC [20]: 3.13 µg/mL (≈ 4.63 µM) | Activity (Lipid bilayer [21]): Active | MIC (Bacillus subtilis [22]): 3.13 µg/mL (≈ 4.63 µM) | inhibition (Bacillus subtilis [23]): inactive | inhibition (Bacillus subtilis [24]): inactive | Activity (HepG2 [25]): Non-Toxic | MIC [26]: 3.13 µg/mL (≈ 4.63 µM) | Activity (TERT-RPE1 [27]): Non-Toxic | Stability [28]: Stable | Activity (TERT-RPE1 [29]): 73.8 mg/L | MIC (Pseudomonas aeruginosa [30]): 3.13 µg/mL (≈ 4.63 µM) | MIC (Enterococcus faecalis): 50 µg/mL (≈ 74 µM) | MIC (Staphylococcus aureus [31]): 6.25 µg/mL (≈ 9.25 µM) | MIC (Pseudomonas aeruginosa [32]): 6.25 µg/mL (≈ 9.25 µM) | Activity (HepG2 [33]): 33.2 mg/L | Stability [34]: Stable | inhibition (Bacillus subtilis [35]): inactive | MIC (Streptococcus agalactiae): 1.56 µg/mL (≈ 2.31 µM) | MIC [36]: 3.13 µg/mL (≈ 4.63 µM) | Stability [37]: Stable

C/C=C/C/C=C/CCC(=O)[C@H]1O[C@H]1C(N)=O
inhibition (Bacillus subtilis [1]): Active | inhibition (Bacillus subtilis [2]): Active | inhibition (Bacillus subtilis [3]): Active | inhibition (Bacillus subtilis [4]): Active | inhibition (Bacillus subtilis [5]): Active

From ChEMBL document CHEMBL4038308, “Lipophosphonoxins II: Design, Synthesis, and Properties of Novel Broad Spectrum Antibacterial Agents” (J Med Chem, 2017)
